From US4460782A, “2-Ethoxymethyl and 2-methoxymethyl N-(3,5-dichlorophenyl) succinamides” (Consortium fur Elektrochemische Industrie GmbH, priority 1980, dated 1984)
Read-outs that look alike come from different tables or passages of the source.

Assays:
Penicillium glaucum = test: Spore germination test, Penicillium glaucum; type: cell-based; details: 500 ppm active substance, 48 hours at 20° C., vs untreated control, read-out: Fungitoxicity against fungi spore, Penicillium glaucum (effectiveness)
Description: (§1) 50 μl of a solution or suspension containing 500 ppm of the active substance are introduced into the hollow of hollow-ground slides, together with 50 μl of a spore suspension prepared by washing the spores from an agar culture with a nutrient solution containing, per liter, 10 g of sugar, 1 g of glycol, 1 g of KH2 PO4 and 0.5 g of MgSO4.
(§2) The slides are kept at 20° C. for 48 hours in a petri dish, the base of which is covered with a moistened filter paper.
(§3) The ratio of germinated and ungerminated spores is then compared with an untreated control sample.
(§4) The effectiveness is calculated as a percentage according to the following formula: [formula]
(§5) The test set-up and procedure are the same as those described in Example 5.

Botrytis cinerea [1] = test: Grape juice test against Botrytis cinerea; type: cell-based; details: 10 ppm active substance
Description: 20 ml of a nutrient solution consisting of grape juice and distilled water in a weight ratio of 1:1 are poured into glass petri dishes and the active substances listed in Table 1 are added thereto in the concentrations indicated. Each test mixture is then inoculated with 50 μl of a suspension of Botrytis spores, prepared by washing the Botrytis spores from an agar culture with distilled water.
After incubation periods of 10 and 20 days, respectively, at 20° C., the extent of fungal development on the surface of the nutrient solution is assessed.
The effectiveness is calculated as a percentage, according to the following formula: [formula] […]

Tilletia tritici = test: Seed dressing test against wheat bunt (Tilletia tritici); type: in vivo; details: Tilletia caries, read-out: % effectiveness (percentage germination inhibition)
Description: Healthy wheat seed is uniformly infected with spores of Tilletia tritici.The infected seed is subsequently dressed carefully with the active substances according to the invention, prepared in the form of dry dressings.
After being dressed, the wheat grains are placed in dishes of damp earth. Incubation takes place in a drying cupboard at from 14° to 17° C. After 48 hours, the spores adhering to the grains are removed by pressing the grains into loam/earth.
After incubation for a further eight days at from 14° to 17° C. in the drying cupboard, the ratio of germinated and ungerminated spores as, compared with an untreated control, is determined under a binocular microscope.
The action of the active substances according to the invention, is given as percentage germination inhibition. […]

Fusarium nivale = test: Spore germination test, Fusarium nivale; type: cell-based; details: Microdochium nivale; 500 ppm active substance; 48 hours at 20° C.; vs untreated control; read-out: Fungitoxicity against fungi spore, Fusarium nivale (effectiveness)
Description: as §1, §2, §3, §4, §5

Botrytis cinerea [2] = test: Spore germination test, Botrytis cinerea; type: cell-based; details: 500 ppm active substance, 48 hours at 20° C., vs untreated control, read-out: Fungitoxicity against fungi spore, Botrytis cinerea (effectiveness)
Description: as §1, §2, §3, §4, §5

Alternaria solani = test: Spore germination test, Alternaria solani; type: cell-based; details: 500 ppm active substance, 48 hours at 20° C., vs untreated control, read-out: Fungitoxicity against fungi spore, Alternaria solani (effectiveness)
Description: as §1, §2, §3, §4, §5

Septoria nodorum = test: Spore germination test, Septoria nodorum; type: cell-based; details: Parastagonospora nodorum; 500 ppm active substance; 48 hours at 20° C.; vs untreated control; read-out: Fungitoxicity against fungi spore, Septoria nodorum (effectiveness)
Description: as §1, §2, §3, §4, §5

[3] = 240 h, 10 days at 20° C., read-out: % effectiveness after 10 days
[4] = 480 h, 20 days at 20° C., read-out: % effectiveness after 20 days

Compound | inhibition of growth at 500 ppm (Penicillium glaucum) [%] | inhibition of growth at 10 ppm (Botrytis cinerea [1]; [3]) [%] | inhibition of growth at 10 ppm (Botrytis cinerea [1]; [4]) [%] | inhibition at 100 ppm (Tilletia tritici) [%] | inhibition of growth at 500 ppm (Fusarium nivale) [%] | inhibition of growth at 500 ppm (Botrytis cinerea [2]) [%] | inhibition of growth at 500 ppm (Alternaria solani) [%] | inhibition of growth at 500 ppm (Septoria nodorum) [%]
O=C1CC(C2C=CCCC2)C(=O)N1c1cc(Cl)cc(Cl)c1 (centres unmarked) [2-(cyclohex-2-en-1-yl)-succinic acid N--(3,5-dichlorophenyl)imide, reference compound] | 0 | 0 | 0 | 0 | 0 | 25 | 30 | 30
CCC=CCSC1CC(=O)N(c2cc(Cl)cc(Cl)c2)C1=O (centres unmarked) [2-(pent-2-en-1-ylmercapto)-succinic acid N--(3,5-dichlorophenyl)imide, reference compound] | 10 | 80 | 45 | 40 | 20 | 20 | 20 | 10
CC(=O)OC1CC(=O)N(c2cc(Cl)cc(Cl)c2)C1=O (centres unmarked) [2-acetoxysuccinic acid N-(3,5-dichlorophenyl) imide] | 100 | 80 | 70 | 100 | 100 | 100 | 100 | 70
C=CCOC1CC(=O)N(c2cc(Cl)cc(Cl)c2)C1=O (centres unmarked) [2-allyloxysuccinic acid N-(3,5-dichlorophenyl)imide] | 80 | 80 | 80 | 100 | 70 | 100 | 80 | 80
CCOC1CC(=O)N(c2cc(Cl)cc(Cl)c2)C1=O (centres unmarked) [2-ethoxysuccinic acid N-(3,5-dichlorophenyl)imide] | 80 | 100 | 100 | 90 | 80 | 100 | 70 | 
C=CCN1C(=O)CC(OC(=O)C(C)C)C1=O (centres unmarked) [2-isobutyroxysuccinic acid N--allylimide, 2-isobutyroxysuccinic acid N-allylimide] |  |  |  | 80 |  |  |  | 
CC(C)OC1CC(=O)N(c2cc(Cl)cc(Cl)c2)C1=O (centres unmarked) [2-isopropoxysuccinic acid N-(3,5-dichlorophenyl)imide] | 100 | 100 | 100 | 100 | 50 | 100 | 70 | 50
COCC1CC(=O)N(c2cc(Cl)cc(Cl)c2)C1=O (centres unmarked) [2-methoxymethylsuccinic acid N-(3,5-dichlorophenyl)imide] | 100 | 100 | 100 | 100 | 100 | 100 | 100 | 70
COCC1CC(=O)N(c2cccc(Cl)c2)C1=O (centres unmarked) [2-methoxymethylsuccinic acid N-(3-chlorophenyl)imide] |  | 90 | 80 | 80 |  |  |  | 
CCC(C)N1C(=O)CC(COC)C1=O (centres unmarked) [2-methoxymethylsuccinic acid N-(but-2-yl)imide] |  |  |  | 80 |  |  |  | 
COC1CC(=O)N(c2cc(Cl)cc(Cl)c2)C1=O (centres unmarked) [2-methoxysuccinic acid N-(3,5-dichlorophenyl) imide] | 80 | 100 | 100 | 95 | 90 | 100 | 90 | 
CCCc1ccc(N2C(=O)CC(OC)C2=O)cc1 (centres unmarked) [2-methoxysuccinic acid N--(4-propylphenyl)imide] |  |  |  | 80 |  |  |  | 
CC(C)NC(=O)N1CC(=O)N(c2cc(Cl)cc(Cl)c2)C1=O [Rovral, 3-(3,5-dichlorophenyl)-1-isopropylcarbymoylhydantoin, reference compound] | 60 |  |  | 75 | 0 | 100 | 0 | 30
